{
  "source": "patent US12486273B2",
  "about": "(Hoffmann-La Roche Inc., priority 2019, dated 2025)",
  "key": {"human TLR8": {"molecular_target": "human TLR8 (Homo sapiens (Human), UniProt Q9NR97)", "sequence (Q9NR97 27-1041)": "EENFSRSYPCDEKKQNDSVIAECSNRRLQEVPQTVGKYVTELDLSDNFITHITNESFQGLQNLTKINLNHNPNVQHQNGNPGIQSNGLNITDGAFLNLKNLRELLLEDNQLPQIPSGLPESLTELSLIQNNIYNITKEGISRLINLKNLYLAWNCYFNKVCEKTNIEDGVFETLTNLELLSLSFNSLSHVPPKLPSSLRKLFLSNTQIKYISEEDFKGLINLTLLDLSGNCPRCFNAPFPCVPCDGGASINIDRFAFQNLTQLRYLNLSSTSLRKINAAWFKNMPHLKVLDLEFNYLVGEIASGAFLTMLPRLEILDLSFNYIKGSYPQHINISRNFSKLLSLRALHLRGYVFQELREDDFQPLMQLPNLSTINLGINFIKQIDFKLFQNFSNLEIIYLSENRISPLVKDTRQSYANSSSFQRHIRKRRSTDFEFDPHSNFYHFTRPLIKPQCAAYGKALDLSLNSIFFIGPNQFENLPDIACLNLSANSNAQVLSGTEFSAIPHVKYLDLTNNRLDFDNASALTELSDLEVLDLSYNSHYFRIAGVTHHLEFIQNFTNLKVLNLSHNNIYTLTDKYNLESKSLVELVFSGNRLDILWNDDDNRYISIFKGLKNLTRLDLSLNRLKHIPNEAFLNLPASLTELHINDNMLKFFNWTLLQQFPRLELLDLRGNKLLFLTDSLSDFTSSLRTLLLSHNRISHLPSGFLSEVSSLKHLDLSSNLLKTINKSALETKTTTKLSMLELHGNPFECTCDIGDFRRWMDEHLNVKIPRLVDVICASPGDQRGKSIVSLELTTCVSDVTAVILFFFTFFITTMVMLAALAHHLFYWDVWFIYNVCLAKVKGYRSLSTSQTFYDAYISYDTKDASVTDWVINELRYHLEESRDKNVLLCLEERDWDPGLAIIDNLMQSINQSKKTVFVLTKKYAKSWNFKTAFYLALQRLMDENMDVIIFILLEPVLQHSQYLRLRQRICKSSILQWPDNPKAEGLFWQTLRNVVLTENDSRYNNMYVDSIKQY", "assay": "HEK293-Blue-hTLR-8 cells assay", "format": "cell-based", "details": "HEK293-Blue-hTLR8 cells, R848 stimulation, 20 hrs, SEAP reporter; read-out: HEK/hTLR8 IC50", "description": "HEK293-Blue-hTLR-8 Cells Assay:\n(§1) A stable HEK293-Blue-hTLR-8 cell line was purchased from InvivoGen (Cat. #: hkb-htlr8, San Diego, California, USA). These cells were originally designed for studying the stimulation of human TLR8 by monitoring the activation of NF-κB. A SEAP (secreted embryonic alkaline phosphatase) reporter gene was placed under the control of the IFN-β minimal promoter fused to five NF-κB and AP-1-binding sites. The SEAP was induced by activating NF-κB and AP-1 via stimulating HEK-Blue hTLR8 cells with TLR8 ligands. Therefore the reporter expression was declined by TLR8 antagonist under the stimulation of a ligand, such as R848, for incubation of 20 hrs. The cell culture supernatant SEAP reporter activity was determined using QUANTI-Blue™ kit (Cat. #: rep-Qb1, Invivogen, San Diego, Ca, USA) at a wavelength of 640 nm, a detection medium that turns purple or blue in the presence of alkaline phosphatase.\nHEK293-Blue-hTLR8 cells were incubated at a density of 250,000-450,000 cells/mL in a volume of 170 μL in a 96-well plate in Dulbecco's Modified Eagle's medium (DMEM) containing 4.5 g/L glucose, 50 U/mL penicillin, […], […], 2 mM L-glutamine, 10% (v/v) heat-inactivated fetal bovine serum with addition of 20 μL test compound in a serial dilution in the presence of final DMSO at 1% and 10 μL of 60 μM R848 in above DMEM, perform incubation under 37° C. in a CO2 incubator for 20 hrs. Then 20 μL of the supernatant from each well was incubated with 180 μL Quanti-blue substrate solution at 37° C. for […] and the absorbance was read at 620˜655 nm using a spectrophotometer. The signaling pathway that TLR8 activation leads to downstream NF-κB activation has been widely accepted, and therefore similar reporter assay was modified for evaluating TLR8 antagonist."}, "[1]": {"assay": "Human microsomal stability assay", "format": "in vitro ADME", "details": "human liver microsomes, 1 μM test compound, 37° C., pH 7.4", "protocol": "Human Microsomal Stability Assay\nHuman liver microsomes (Cat. NO.: 452117, Corning, USA) were preincubated with test compound for 10 minutes at 37° C. in 100 mM potassium phosphate buffer, pH 7.4. The reactions were initiated by adding NADPH regenerating system. The final incubation mixtures contained 1 μM test compound, 0.5 mg/mL liver microsomal protein, 1 mM MgCl2, 1 mM NADP, 1 unit/mL isocitric dehydrogenase and 6 mM isocitric acid in 100 mM potassium phosphate buffer, pH 7.4. After incubation times of 0, 3, 6, 9, 15 and 30 minutes at 37° C., 300 μL of cold ACN (including internal standard) was added to 100 μL incubation mixture to terminate the reaction. Following precipitation and centrifugation, 100 μL supernatant will be taken out and added 300 μL water. The amount of compound remaining in the samples was determined by LC-MS/MS. Controls of no NADPH regenerating system at zero and 30 minutes were also prepared and analyzed. The results were categorized as: low (<7.0 mL/min/kg), medium (7.0-16.2 mL/min/kg) and high (16.2-23.2 mL/min/kg)."}, "human TLR7": {"molecular_target": "human TLR7 (Homo sapiens (Human), UniProt Q9NYK1)", "sequence (Q9NYK1 27-1049)": "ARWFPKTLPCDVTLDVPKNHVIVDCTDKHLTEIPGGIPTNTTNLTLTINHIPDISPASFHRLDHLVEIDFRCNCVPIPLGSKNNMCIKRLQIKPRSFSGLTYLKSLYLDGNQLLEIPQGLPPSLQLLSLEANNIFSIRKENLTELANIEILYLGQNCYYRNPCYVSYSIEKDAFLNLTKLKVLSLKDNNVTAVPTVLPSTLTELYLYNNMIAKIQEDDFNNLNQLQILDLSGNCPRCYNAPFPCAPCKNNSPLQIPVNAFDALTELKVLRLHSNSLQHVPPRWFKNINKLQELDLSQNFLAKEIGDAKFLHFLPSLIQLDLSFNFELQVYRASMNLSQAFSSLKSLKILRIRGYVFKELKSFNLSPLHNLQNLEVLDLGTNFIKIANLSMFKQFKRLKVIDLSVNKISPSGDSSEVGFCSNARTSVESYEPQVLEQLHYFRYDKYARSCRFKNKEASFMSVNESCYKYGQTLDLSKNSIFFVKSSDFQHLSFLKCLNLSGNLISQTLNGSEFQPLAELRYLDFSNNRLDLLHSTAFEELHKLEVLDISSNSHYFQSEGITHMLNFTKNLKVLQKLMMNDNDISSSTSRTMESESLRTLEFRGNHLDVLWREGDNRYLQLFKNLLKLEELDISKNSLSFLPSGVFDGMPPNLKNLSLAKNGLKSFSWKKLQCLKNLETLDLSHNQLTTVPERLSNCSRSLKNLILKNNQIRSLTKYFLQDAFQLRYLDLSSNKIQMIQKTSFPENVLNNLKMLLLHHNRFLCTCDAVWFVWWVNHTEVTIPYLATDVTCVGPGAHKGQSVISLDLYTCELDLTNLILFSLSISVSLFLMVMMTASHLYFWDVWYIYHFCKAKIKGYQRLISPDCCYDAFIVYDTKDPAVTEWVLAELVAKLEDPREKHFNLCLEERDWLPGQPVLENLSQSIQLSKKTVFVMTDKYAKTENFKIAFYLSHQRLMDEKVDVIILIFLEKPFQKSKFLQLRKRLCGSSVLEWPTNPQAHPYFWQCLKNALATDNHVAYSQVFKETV", "assay": "HEK293-Blue-hTLR-7 cells assay", "format": "cell-based", "details": "HEK293-Blue-hTLR7 cells, R848 stimulation, 20 hrs, SEAP reporter; read-out: HEK/hTLR7 IC50", "description": "HEK293-BLUE-hTLR-7 CELLS ASSAY:\nas §1, with “HEK293-Blue-hTLR-7” for “HEK293-Blue-hTLR-8”, “hkb-htlr7,” for “hkb-htlr8,”, “TLR7” for “TLR8”, “hTLR7” for “hTLR8”, “R848 (Resiquimod),” for “R848,”, “rep-qb1,” for “rep-Qb1,”\n(§2) HEK293-Blue-hTLR7 cells were incubated at a density of 250,000˜450,000 cells/mL in a volume of 170 μL in a 96-well plate in Dulbecco's Modified Eagle's medium (DMEM) containing 4.5 g/L glucose, 50 U/mL penicillin, […], […], 2 mM L-glutamine, 10% (v/v) heat-inactivated fetal bovine serum with addition of 20 μL test compound in a serial dilution in the presence of final DMSO at 1% and 10 μL of 20 μM R848 in above DMEM, perform incubation under 37° C. in a CO2 incubator for 20 hrs. Then 20 μL of the supernatant from each well was incubated with 180 μL Quanti-blue substrate solution at 37° C. for 2 hrs and the absorbance was read at 620-655 nm using a spectrophotometer. The signaling pathway that TLR7 activation leads to downstream NF-κB activation has been widely accepted, and therefore similar reporter assay was modified for evaluating TLR7 antagonist."}, "human TLR9": {"molecular_target": "human TLR9 (Homo sapiens (Human), UniProt Q9NR96)", "sequence (Q9NR96 26-1032)": "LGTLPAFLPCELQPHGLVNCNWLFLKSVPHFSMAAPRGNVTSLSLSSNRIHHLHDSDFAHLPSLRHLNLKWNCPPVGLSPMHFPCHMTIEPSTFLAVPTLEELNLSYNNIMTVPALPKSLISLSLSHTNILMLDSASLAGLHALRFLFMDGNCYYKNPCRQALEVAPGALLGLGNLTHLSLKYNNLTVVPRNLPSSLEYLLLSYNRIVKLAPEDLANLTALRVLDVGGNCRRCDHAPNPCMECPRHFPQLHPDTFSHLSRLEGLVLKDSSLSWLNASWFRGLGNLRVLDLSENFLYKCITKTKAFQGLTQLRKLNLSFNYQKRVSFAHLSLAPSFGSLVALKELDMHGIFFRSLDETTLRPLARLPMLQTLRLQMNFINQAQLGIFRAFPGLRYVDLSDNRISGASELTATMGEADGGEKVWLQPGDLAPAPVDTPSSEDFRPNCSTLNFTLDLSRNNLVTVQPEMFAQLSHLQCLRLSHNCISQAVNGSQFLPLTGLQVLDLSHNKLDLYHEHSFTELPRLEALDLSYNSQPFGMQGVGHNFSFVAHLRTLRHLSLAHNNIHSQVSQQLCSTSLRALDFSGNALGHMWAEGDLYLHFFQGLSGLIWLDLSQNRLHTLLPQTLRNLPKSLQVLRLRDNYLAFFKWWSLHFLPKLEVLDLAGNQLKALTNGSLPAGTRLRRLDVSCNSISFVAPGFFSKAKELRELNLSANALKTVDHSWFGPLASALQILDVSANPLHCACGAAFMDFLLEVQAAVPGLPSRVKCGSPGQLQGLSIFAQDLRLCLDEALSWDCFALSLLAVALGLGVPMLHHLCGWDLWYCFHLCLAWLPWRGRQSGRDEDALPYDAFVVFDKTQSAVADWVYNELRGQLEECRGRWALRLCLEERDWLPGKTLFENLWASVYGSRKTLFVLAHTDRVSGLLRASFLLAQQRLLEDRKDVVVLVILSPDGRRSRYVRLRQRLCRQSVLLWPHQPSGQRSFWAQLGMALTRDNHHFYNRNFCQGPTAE", "assay": "HEK293-Blue-hTLR-9 cells assay", "format": "cell-based", "details": "HEK293-Blue-hTLR9 cells, ODN2006 stimulation, 20 hrs, SEAP reporter; read-out: HEK/hTLR9 IC50", "description": "HEK293-Blue-hTLR-9 Cells Assay:\nA stable HEK293-Blue-hTLR-9 cell line was purchased from InvivoGen (Cat. #: hkb-htlr9, San Diego, California, USA). These cells were originally designed for studying the stimulation of human TLR9 by monitoring the activation of NF-κB. A SEAP (secreted embryonic alkaline phosphatase) reporter gene was placed under the control of the IFN-β minimal promoter fused to five NF-κB and AP-1-binding sites. The SEAP was induced by activating NF-κB and AP-via stimulating HEK-Blue hTLR9 cells with TLR9 ligands. Therefore the reporter expression was declined by TLR9 antagonist under the stimulation of a ligand, such as ODN2006 (Cat. #: tlrl-2006-1, Invivogen, San Diego, California, USA), for incubation of 20 hrs. The cell culture supernatant SEAP reporter activity was determined using QUANTI-Blue™ kit (Cat. #: rep-qb1, Invivogen, San Diego, California, USA) at a wavelength of 640 nm, a detection medium that turns purple or blue in the presence of alkaline phosphatase.\nas §2, with “HEK293-Blue-hTLR9 cells” for “HEK293-Blue-hTLR7 cells”, “μM ODN2006” for “μM R848”, “2 h” for “2 hrs”, “that TLR9” for “that TLR7”, “evaluating TLR9” for “evaluating TLR7”"}},
  "data": [
    {"smiles": "[2H]c1ccc2c(N3C[C@@H]4C[C@H](N5CCc6ncc(N7CCNCC7)nc6C5)CN4[C@H](C)C3)ccc(C#N)c2n1", "note": "[Example 24]", "values": [
      {"measurement": "IC50", "setting": "human TLR8", "value": 5.9, "unit": "nM"},
      {"measurement": "CL (h)", "setting": "[1]", "value": 8.9, "unit": "mL/min/kg"},
      {"measurement": "IC50", "setting": "human TLR7", "value": 4.3, "unit": "nM"},
      {"measurement": "IC50", "setting": "human TLR9", "value": 95.2, "unit": "nM"}
    ]}
  ]
}
